According to US6235789A, “Benzocycloalkene compounds, their production and use” (Takeda Chemical Industries, Ltd., priority 1994, dated 2001):
pIC50: −log10 of the molar value.

Biological target: melatonin receptor
Assay: Inhibition of 2-[^125 I]iodomelatonin binding in forebrain homogenate of 7-day-old chicken
Parameters: species or system chicken (white leghorn)
Details: 80 pM 2-[^125 I]iodomelatonin, 90 minutes at 25° C., 7-day-old chicken forebrain homogenate, log-probit analysis; read-out: IC50, action of inhibiting 2-[^125 I]iodomelatonin binding
Method: The farebrains of 7-day-old chicken (white leghorn) were homogenized with ice-cold assay buffer (50 mM Tris-HCl, pH 7.7 at 25° C.) and centrifuged at 44,000×g for 10 minutes at 4° C. The pellet was washed once with the same buffer and stored at -30° C. until use. For the assay, the frozen tissue pellet was thawed and homogenized with the assay buffer to make a protein concentration of 0.3-0.4 mg/ml. […] The reaction was terminated by adding 3 ml of ice-cold assay buffer immediately followed by vacuum filtration on Whatman GF/B which was further washed twice with 3 ml of ice-cold assay buffer. The radioactivity on the filter was determined by means of γ-counter.

`COc1ccc2c(c1)/C(=C/CNC(=O)C(F)(F)F)CCC2` [compound 33] and `COc1ccc2c(c1)[C@H](CCNC(C)=O)CC2` [compound 66] are within 0.2 log units of each other in pIC50: 9.14 for the first, 9.15 for the second.

With `CC(=O)NCCC1CCCc2ccc(O)cc21` (stereo not drawn) [compound 35] the pIC50 was 9.02.
